These results are taken from patent publication US20180065917A1, “IMMUNE CHECKPOINT INHIBITORS, COMPOSITIONS AND METHODS THEREOF” (Polaris Pharmaceuticals, Inc., priority 2016, published 2018).

Structures are written as SMILES. pIC50: −log10 of the molar value. Structures can show the parent of a compound that is named as a salt.

The target of this test is T1, PD-L1/PD-1 complex formation (Homo sapiens, UniProt Q9NZQ7).
T1 construct: purchased BPS Bioscience
T1 sequence (Q9NZQ7 19-239 limits assumed, one chain of several): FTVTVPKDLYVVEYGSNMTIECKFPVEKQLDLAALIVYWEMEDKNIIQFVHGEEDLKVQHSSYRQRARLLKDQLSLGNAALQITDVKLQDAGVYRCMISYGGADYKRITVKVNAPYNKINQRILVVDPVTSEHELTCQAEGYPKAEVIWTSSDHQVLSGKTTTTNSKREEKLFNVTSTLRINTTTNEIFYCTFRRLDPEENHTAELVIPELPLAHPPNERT
In words: PD-L1/PD-1 Interaction Assay (ELISA platform). The note with it: human PD-1-Fc coated plates, PD-L1-Fc-biotin 0.1 μg/ml, compounds pre-incubated 2 hours. It counts as binding. On the procedure: The ability of compounds to block PD-L1/PD-1 complex formation was evaluated using biochemical interaction assay based on the ELISA platform.
EIA/RIA high binding 96-well plates (Costar) were coated with human PD-1-Fc protein diluted in PBS to 0.5 μg/ml overnight at 4° C. The PD-1-Fc coated plates were washed in PBST and blocked in blocking buffer (2% BSA in PBST). Serially diluted compounds were pre-incubated with PD-L1-Fc-biotin (0.1 μg/ml final) for 2 hours on a shaker at room temperature. The PD-1-Fc coated plates were washed with PBST and solutions containing PD-L1 and compounds were added to the plates. The PD-1-Fc coated plates were incubated with PD-L1 and compound solution for 2 hours on a shaker at room temperature. After the incubation unbound PD-L1 was washed away with PBST and plates were incubated with the blocking buffer for 10 minutes. The bound PD-L1-Fc-biotin was detected with streptavidin-HRP and TMB substrate. The plates were read at OD450 nm in a plate reader (i3 from Molecular Devices) and percentages of inhibition of PD-L1/PD-1 complex formation were calculated.
PD-1-Fc protein was made at Polaris and PD-L1-Fc was purchased from BPS Bioscience.
Turning to `Cc1c(COc2ccc(CN3CCCC[C@H]3C(N)=O)cc2Br)cccc1-c1cccc(COc2ccc(CN3CCCC[C@H]3C(N)=O)cc2Br)c1C` [Example 23, (2S,2′S)-1,1′-(((((2,2′-Dimethyl-[1,1′-biphenyl]-3,3′-diyl)bis(methylene))bis(oxy))bis(3-bromo-4,1-phenylene))bis(methylene))bis(piperidine-2-carboxamide)], the pIC50 was 4.52 to 6.00.

For the molecule `Cc1c(COc2ccc(CNC(CO)CO)cc2Br)cccc1-c1cccc(COc2ccc(CNC(CO)CO)cc2Br)c1C` [Example 32, 2,2′-((((((2,2′-Dimethyl-[1,1′-biphenyl]-3,3′-diyl)bis(methylene))bis(oxy))bis(3-bromo-4,1-phenylene))bis(methylene))bis(azanediyl))bis(propane-1,3-diol) di-trifluoroacetic acid salt], the pIC50 was 8.00 to 10.00.

Molecule `COc1nc(OCc2cccc(-c3cccc(COc4ccc(CNCCNC(C)=O)c(OC)n4)c3C)c2C)ccc1CNCCNC(C)=O` [Example 3, N,N′-(((((((2,2′-Dimethyl-[1,1′-biphenyl]-3,3′-diyl)bis(methylene))bis(oxy))bis(2-methoxypyridine-6,3-diyl))bis(methylene))bis(azanediyl))bis(ethane-2,1-diyl))diacetamide] showed a negative logarithm of the IC50 (pIC50) of 7.00 to 7.96.

`Cc1c(COc2ccc(CN[C@H](C)C(=O)O)cc2Br)cccc1-c1cccc(COc2ccc(CN[C@H](C)C(=O)O)cc2Br)c1C` [Example 16, (2R,2′R)-2,2′-((((((2,2′-Dimethyl-[1,1′-biphenyl]-3,3′-diyl)bis(methylene))bis(oxy))bis(3-bromo-4,1-phenylene))bis(methylene))bis(azanediyl))dipropionic acid di-trifluoroacetic acid salt] gave a pIC50 of 7.00 to 7.96.

Take `C#Cc1cc(CN2CCCC[C@H]2C(=O)O)ccc1OCc1cccc(-c2cccc(COc3ccc(CN4CCCC[C@H]4C(=O)O)cc3C#C)c2C)c1C` [Example 26, (2S,2′S)-1,1′-(((((2,2′-Dimethyl-[1,1′-biphenyl]-3,3′-diyl)bis(methylene))bis(oxy))bis(3-ethynyl-4,1-phenylene))bis(methylene))bis(piperidine-2-carboxylic acid) di-trifluoroacetic acid salt]: the pIC50 was 7.00 to 7.96.

On to `Cc1c(COc2ccc(CN[C@@H](C)C(=O)O)cc2Br)cccc1-c1cccc(COc2ccc(CN[C@@H](C)C(=O)O)cc2Br)c1C` [Example 15, (2S,2′S)-2,2′-((((((2,2′-Dimethyl-[1,1′-biphenyl]-3,3′-diyl)bis(methylene))bis(oxy))bis(3-bromo-4,1-phenylene))bis(methylene))bis(azanediyl))dipropionic acid di-trifluoroacetic acid salt], for which the pIC50 is 8.00 to 10.00.

`Cc1c(COc2ccc(CN3CCCC[C@H]3C(=O)NCCN(C)C)cc2Br)cccc1-c1cccc(COc2ccc(CN3CCCC[C@H]3C(=O)NCCN(C)C)cc2Br)c1C` [Example 25, (2S,2′S)-1,1′-(((((2,2′-Dimethyl-[1,1′-biphenyl]-3,3′-diyl)bis(methylene))bis(oxy))bis(3-bromo-4,1-phenylene))bis(methylene))bis(N-(2-(dimethylamino)ethyl)piperidine-2-carboxamide)] showed a pIC50 of 4.52 to 6.00.

As for `Cc1c(COc2ccc(CN3CCCC[C@H]3C(=O)O)cc2C(F)F)cccc1-c1cccc(COc2ccc(CN3CCCC[C@H]3C(=O)O)cc2C(F)F)c1C` [Example 29, (2S,2′S)-1,1′-(((((2,2′-Dimethyl-[1,1′-biphenyl]-3,3′-diyl)bis(methylene))bis(oxy))bis(3-(difluoromethyl)-4,1-phenylene))bis(methylene))bis(piperidine-2-carboxylic acid) di-trifluoroacetic acid salt], the pIC50 is 8.00 to 10.00.

Consider `Cc1c(COc2ccc(CNCCO)cc2Br)cccc1-c1cccc(COc2ccc(CNCCO)cc2Br)c1C` [Example 5, 2,2′-((((((2,2′-Dimethyl-[1,1′-biphenyl]-3,3′-diyl)bis(methylene))bis(oxy))bis(3-bromo-4,1-phenylene))bis(methylene))bis(azanediyl))bis(ethan-1-ol) di-trifluoroacetic acid salt], for which the pIC50 was 8.00 to 10.00.

For the molecule `Cc1c(COc2ccc(CN(CC(=O)O)CC(=O)O)cc2Br)cccc1-c1cccc(COc2ccc(CN(CC(=O)O)CC(=O)O)cc2Br)c1C` [Example 30, 2,2′,2″,2′″-((((((2,2′-Dimethyl-[1,1′-biphenyl]-3,3′-diyl)bis(methylene))bis(oxy))bis(3-bromo-4,1-phenylene))bis(methylene))bis(azanetriyl))tetraacetic acid di-trifluoroacetic acid salt], the pIC50 is 6.00 to 6.96.

Turning to `Cc1c(COc2ccc(CN3CCCC[C@@H]3C(=O)O)cc2Br)cccc1-c1cccc(COc2ccc(CN3CCCC[C@@H]3C(=O)O)cc2Br)c1C` [Example 2, (2R,2′R)-1,1′-(((((2,2′-dimethyl-[1,1′-biphenyl]-3,3′-diyl)bis(methylene))bis(oxy))bis(3-bromo-4,1-phenylene))bis(methylene))bis(piperidine-2-carboxylic acid)], the negative-log IC50 (pIC50) was 7.00 to 7.96.

`COC(=O)[C@@H]1CCCCN1Cc1ccc(OCc2cccc(-c3cccc(COc4ccc(CN5CCCC[C@H]5C(=O)OC)cc4Br)c3C)c2C)c(Br)c1` [Example 4, Dimethyl 1,1′-(((((2,2′-dimethyl-[1,1′-biphenyl]-3,3′-diyl)bis(methylene))bis(oxy))bis(3-bromo-4,1-phenylene))bis(methylene))(2S,2′S)-bis(piperidine-2-carboxylate)] showed a pIC50 of less than 4.52.

`CSc1cc(CN2CCCC[C@H]2C(=O)O)ccc1OCc1cccc(-c2cccc(COc3ccc(CN4CCCC[C@H]4C(=O)O)cc3SC)c2C)c1C` [Example 28, (2S,2′S)-1,1′-(((((2,2′-Dimethyl-[1,1′-biphenyl]-3,3′-diyl)bis(methylene))bis(oxy))bis(3-(methylthio)-4,1-phenylene))bis(methylene))bis(piperidine-2-carboxylic acid) di-trifluoroacetic acid salt]: the pIC50 is 6.00 to 6.96.

Regarding `Cc1c(COc2ccc(CN3CCCC[C@H]3C(=O)NCCO)cc2Br)cccc1-c1cccc(COc2ccc(CN3CCCC[C@H]3C(=O)NCCO)cc2Br)c1C` [Example 24, (2S,2′S)-1,1′-(((((2,2′-Dimethyl-[1,1′-biphenyl]-3,3′-diyl)bis(methylene))bis(oxy))bis(3-bromo-4,1-phenylene))bis(methylene))bis(N-(2-hydroxyethyl)piperidine-2-carboxamide)], the pIC50 is 6.00 to 6.96.

In the case of `Cc1c(COc2ccc(CNC(C)(CO)CO)cc2Br)cccc1-c1cccc(COc2ccc(CNC(C)(CO)CO)cc2Br)c1C` [Example 33, 2,2′-((((((2,2′-Dimethyl-[1,1′-biphenyl]-3,3′-diyl)bis(methylene))bis(oxy))bis(3-bromo-4,1-phenylene))bis(methylene))bis(azanediyl))bis(2-methylpropane-1,3-diol) di-trifluoroacetic acid salt], the pIC50 is 8.00 to 10.00.

On to `Cc1c(COc2ccc(CNC(C)(C)C(=O)O)cc2Br)cccc1-c1cccc(COc2ccc(CNC(C)(C)C(=O)O)cc2Br)c1C` [Example 14, 2,2′-((((((2,2′-Dimethyl-[1,1′-biphenyl]-3,3′-diyl)bis(methylene))bis(oxy))bis(3-bromo-4,1-phenylene))bis(methylene))bis(azanediyl))bis(2-methylpropanoic acid) di-trifluoroacetic acid salt], for which the pIC50 is 8.00 to 10.00.

As for `Cc1c(COc2ccc(CN(CCO)CCO)cc2Br)cccc1-c1cccc(COc2ccc(CN(CCO)CCO)cc2Br)c1C` [Example 31, 2,2′,2″,2′″-((((((2,2′-Dimethyl-[1,1′-biphenyl]-3,3′-diyl)bis(methylene))bis(oxy))bis(3-bromo-4,1-phenylene))bis(methylene))bis(azanetriyl))tetrakis(ethan-1-ol) di-trifluoroacetic acid salt], the pIC50 was 7.00 to 7.96.

The molecule `CCc1cc(CN2CCCC[C@H]2C(=O)O)ccc1OCc1cccc(-c2cccc(COc3ccc(CN4CCCC[C@H]4C(=O)O)cc3CC)c2C)c1C` [Example 27, (2S,2′S)-1,1′-(((((2,2′-Dimethyl-[1,1′-biphenyl]-3,3′-diyl)bis(methylene))bis(oxy))bis(3-ethyl-4,1-phenylene))bis(methylene))bis(piperidine-2-carboxylic acid) di-trifluoroacetic acid salt] showed a pIC50 of 6.00 to 6.96.

As to `Cc1c(COc2ccc(CN[C@@H](C(=O)O)[C@H](C)O)cc2Br)cccc1-c1cccc(COc2ccc(CN[C@@H](C(=O)O)[C@H](C)O)cc2Br)c1C` [Example 18, (2R,2′R,3S,3′S)-2,2′-((((((2,2′-Dimethyl-[1,1′-biphenyl]-3,3′-diyl)bis(methylene))bis(oxy))bis(3-bromo-4,1-phenylene))bis(methylene))bis(azanediyl))bis(3-hydroxybutanoic acid) di-trifluoroacetic acid salt], the pIC50 was 8.00 to 10.00.

The molecule `Cc1c(COc2ccc(CN[C@H](CO)C(=O)O)cc2Br)cccc1-c1cccc(COc2ccc(CN[C@H](CO)C(=O)O)cc2Br)c1C` [Example 17, (2R,2′R)-2,2′-((((((2,2′-Dimethyl-[1,1′-biphenyl]-3,3′-diyl)bis(methylene))bis(oxy))bis(3-bromo-4,1-phenylene))bis(methylene))bis(azanediyl))bis(3-hydroxypropanoic acid) di-trifluoroacetic acid salt] showed a pIC50 of 8.00 to 10.00.
